According to ChEMBL document CHEMBL3425434 (J Med Chem, 2015):
Calls of active or inactive are those of the source. The rule behind the calls is not given here.

Legend:
[1] = biological target: T1, Protein kinase C epsilon type (Homo sapiens) (UniProt Q02156); test: Inhibition of human full length PKC epsilon expressed in insect cells using S25 PKC peptide as substrate at 100 nM by radiometric assay in presence of [32P]ATP
T1 sequence (whole entry): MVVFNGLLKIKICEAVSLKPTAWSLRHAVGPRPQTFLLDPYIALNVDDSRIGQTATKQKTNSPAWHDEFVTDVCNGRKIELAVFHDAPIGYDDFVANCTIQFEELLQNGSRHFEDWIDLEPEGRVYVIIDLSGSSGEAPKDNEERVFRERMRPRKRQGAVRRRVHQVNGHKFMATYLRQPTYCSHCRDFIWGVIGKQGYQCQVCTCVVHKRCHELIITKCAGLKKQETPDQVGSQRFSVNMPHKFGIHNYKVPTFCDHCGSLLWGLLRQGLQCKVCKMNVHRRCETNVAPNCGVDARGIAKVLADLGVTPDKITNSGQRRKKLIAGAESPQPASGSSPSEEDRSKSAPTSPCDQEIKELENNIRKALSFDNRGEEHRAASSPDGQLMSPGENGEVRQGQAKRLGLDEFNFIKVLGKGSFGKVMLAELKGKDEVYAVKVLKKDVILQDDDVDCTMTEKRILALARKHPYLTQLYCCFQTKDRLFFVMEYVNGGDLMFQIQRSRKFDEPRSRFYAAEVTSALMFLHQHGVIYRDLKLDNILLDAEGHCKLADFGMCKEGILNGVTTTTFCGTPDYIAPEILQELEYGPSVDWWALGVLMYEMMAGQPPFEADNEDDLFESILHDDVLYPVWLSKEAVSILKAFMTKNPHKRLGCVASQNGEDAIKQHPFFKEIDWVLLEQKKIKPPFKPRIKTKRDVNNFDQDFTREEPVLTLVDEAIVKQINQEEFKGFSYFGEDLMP

[2] = Cytotoxicity against human HDF-1 cells assessed as decrease in cell viability after 2 hrs by WST-1 assay; assay type: cell-based
[3] = Half life in NewZealand white rabbit hepatocytes by LC-PDA-MSA analysis; assay type: ADME, cell-based, Oryctolagus cuniculus, Hepatocyte; settings: New Zealand white
[4] = Apparent permeability across human Caco2 cells; assay type: ADME, cell-based; settings: Caco-2
[5] = Stability in human hepatocytes assessed as compound remaining after 120 mins by LC-MS/MS analysis; assay type: ADME, cell-based, Hepatocyte; settings: read-out: Stability
[6] = biological target: Protein kinase C eta type (Homo sapiens) (UniProt P24723); test: Inhibition of human N-terminal GST-tagged PKC eta expressed in baculovirus-infected insect cells using PKCe peptide as substrate at 100 nM by radiometric assay in presence of [32P]ATP and lipid activator
Chain of Protein kinase C eta type (Homo sapiens) (P24723 whole entry): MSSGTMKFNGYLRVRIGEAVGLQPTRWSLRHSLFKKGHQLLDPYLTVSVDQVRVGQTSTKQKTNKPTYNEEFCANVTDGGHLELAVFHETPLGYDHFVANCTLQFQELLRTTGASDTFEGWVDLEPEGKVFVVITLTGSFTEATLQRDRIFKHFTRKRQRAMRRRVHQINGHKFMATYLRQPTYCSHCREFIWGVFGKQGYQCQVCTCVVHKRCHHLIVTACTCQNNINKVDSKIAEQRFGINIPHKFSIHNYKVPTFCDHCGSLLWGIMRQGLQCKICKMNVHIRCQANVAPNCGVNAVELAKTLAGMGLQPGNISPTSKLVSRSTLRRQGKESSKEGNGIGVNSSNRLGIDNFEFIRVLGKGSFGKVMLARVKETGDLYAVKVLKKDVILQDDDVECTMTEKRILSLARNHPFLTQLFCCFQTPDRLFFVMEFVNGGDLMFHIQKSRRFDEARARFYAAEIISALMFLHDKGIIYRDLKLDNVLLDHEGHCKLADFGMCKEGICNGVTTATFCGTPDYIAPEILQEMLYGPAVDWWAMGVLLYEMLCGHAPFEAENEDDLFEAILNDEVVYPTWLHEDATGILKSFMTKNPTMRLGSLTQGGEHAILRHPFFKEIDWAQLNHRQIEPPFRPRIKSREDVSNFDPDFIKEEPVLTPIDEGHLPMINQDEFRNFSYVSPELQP

[7] = biological target: Protein kinase C delta type (Homo sapiens) (UniProt Q05655); test: Inhibition of human full length PKC delta expressed in insect cells using PKCe peptide as substrate at 100 nM by radiometric assay in presence of [32P]ATP and lipid activator
[8] = Cmax in NewZealand white rabbit plasma at 0.1 mg/kg, iv after 5 mins by LC-MS/MS analysis; assay type: ADME, organism-based, Oryctolagus cuniculus; set-up: dose 0.1 mg/kg, route intravenous; settings: New Zealand white
[9] = biological target: T2, Rho-associated protein kinase 2 (Homo sapiens, UniProt O75116); test: Inhibition of human N-terminal GST-tagged ROCK2 expressed in baculovirus-infected insect cells using long S6 kinase peptide as substrate by radiometric assay in presence of [32P]ATP
T2 sequence (O75116 whole entry): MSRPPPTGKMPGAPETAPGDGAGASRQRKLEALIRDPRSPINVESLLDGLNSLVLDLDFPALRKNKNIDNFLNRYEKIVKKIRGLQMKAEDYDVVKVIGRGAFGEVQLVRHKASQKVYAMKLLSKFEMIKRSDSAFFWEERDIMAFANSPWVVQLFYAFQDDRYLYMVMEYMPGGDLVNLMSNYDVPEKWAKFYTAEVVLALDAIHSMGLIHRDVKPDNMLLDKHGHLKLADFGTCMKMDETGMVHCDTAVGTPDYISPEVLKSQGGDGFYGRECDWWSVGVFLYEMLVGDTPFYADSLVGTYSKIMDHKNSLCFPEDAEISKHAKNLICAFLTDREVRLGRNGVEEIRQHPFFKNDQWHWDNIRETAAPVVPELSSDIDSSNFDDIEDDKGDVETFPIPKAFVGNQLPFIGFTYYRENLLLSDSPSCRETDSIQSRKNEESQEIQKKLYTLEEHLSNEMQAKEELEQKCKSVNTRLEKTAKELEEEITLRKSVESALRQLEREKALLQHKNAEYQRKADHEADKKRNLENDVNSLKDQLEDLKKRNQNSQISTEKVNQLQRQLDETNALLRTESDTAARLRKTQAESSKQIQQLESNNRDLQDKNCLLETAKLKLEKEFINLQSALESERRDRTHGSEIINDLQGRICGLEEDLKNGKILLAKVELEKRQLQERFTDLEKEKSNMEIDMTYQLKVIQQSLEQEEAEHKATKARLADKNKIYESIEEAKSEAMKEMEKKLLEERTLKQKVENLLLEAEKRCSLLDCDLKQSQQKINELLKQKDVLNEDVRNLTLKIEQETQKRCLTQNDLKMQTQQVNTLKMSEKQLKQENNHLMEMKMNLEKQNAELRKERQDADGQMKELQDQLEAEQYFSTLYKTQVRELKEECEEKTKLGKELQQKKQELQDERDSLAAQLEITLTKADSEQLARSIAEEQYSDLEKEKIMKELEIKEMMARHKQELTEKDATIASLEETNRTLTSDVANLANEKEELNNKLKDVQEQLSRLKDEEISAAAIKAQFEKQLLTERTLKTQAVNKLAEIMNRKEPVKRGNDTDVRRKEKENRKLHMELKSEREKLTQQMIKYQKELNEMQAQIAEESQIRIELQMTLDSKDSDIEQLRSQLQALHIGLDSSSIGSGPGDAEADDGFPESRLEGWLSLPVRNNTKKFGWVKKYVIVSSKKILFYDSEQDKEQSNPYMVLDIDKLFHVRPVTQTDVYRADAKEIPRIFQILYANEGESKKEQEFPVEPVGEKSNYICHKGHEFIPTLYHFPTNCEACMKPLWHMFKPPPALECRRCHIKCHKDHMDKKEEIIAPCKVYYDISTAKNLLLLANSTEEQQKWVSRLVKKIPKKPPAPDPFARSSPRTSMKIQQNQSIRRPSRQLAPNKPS

[10] = Half life in human hepatocytes by LC-PDA-MSA analysis; assay type: ADME, cell-based, Hepatocyte
[11] = biological target: Serine/threonine-protein kinase N1 (Homo sapiens) (UniProt Q16512); test: Inhibition of human full length N-terminal GST-tagged PRK1 expressed in insect cells using glycogen synthase derived peptide as substrate at 100 nM by radiometric assay in presence of [32P]ATP
Chain of Serine/threonine-protein kinase N1 (Homo sapiens) (Q16512 2-942 limits assumed): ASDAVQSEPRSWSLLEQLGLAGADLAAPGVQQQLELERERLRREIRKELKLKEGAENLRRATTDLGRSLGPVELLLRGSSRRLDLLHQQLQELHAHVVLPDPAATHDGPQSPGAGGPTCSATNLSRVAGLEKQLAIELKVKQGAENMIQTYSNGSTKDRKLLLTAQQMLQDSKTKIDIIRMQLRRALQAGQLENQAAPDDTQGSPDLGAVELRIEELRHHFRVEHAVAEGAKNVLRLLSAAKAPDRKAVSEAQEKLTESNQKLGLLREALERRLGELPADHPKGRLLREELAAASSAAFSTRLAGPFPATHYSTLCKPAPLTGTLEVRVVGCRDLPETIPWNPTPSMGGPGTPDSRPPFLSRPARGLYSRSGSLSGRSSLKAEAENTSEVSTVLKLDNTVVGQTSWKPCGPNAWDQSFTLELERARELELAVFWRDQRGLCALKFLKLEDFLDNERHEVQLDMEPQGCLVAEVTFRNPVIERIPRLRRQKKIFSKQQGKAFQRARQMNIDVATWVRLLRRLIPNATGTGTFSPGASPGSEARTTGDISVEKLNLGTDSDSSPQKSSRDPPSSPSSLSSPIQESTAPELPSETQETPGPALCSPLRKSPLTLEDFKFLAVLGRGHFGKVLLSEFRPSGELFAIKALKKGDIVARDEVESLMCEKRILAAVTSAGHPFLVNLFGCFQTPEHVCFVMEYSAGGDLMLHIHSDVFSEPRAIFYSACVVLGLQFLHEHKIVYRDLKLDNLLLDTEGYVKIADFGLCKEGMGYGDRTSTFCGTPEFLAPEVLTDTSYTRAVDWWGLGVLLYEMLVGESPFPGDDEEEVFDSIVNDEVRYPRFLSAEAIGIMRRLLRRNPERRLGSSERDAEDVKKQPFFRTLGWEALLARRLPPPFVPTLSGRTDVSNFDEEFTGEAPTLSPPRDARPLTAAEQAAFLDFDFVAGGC

[12] = Stability in NewZealand white rabbit hepatocytes assessed as compound remaining after 120 mins by LC-MS/MS analysis; assay type: ADME, cell-based, Oryctolagus cuniculus, Hepatocyte; settings: New Zealand white, read-out: Stability
[13] = biological target: T3, cAMP-dependent protein kinase catalytic subunit PRKX (Homo sapiens) (UniProt P51817); test: Inhibition of human full length N-terminal GST-tagged PRKX expressed in insect cells using kemptide as substrate at 100 nM by radiometric assay in presence of [32P]ATP
T3 sequence (whole entry): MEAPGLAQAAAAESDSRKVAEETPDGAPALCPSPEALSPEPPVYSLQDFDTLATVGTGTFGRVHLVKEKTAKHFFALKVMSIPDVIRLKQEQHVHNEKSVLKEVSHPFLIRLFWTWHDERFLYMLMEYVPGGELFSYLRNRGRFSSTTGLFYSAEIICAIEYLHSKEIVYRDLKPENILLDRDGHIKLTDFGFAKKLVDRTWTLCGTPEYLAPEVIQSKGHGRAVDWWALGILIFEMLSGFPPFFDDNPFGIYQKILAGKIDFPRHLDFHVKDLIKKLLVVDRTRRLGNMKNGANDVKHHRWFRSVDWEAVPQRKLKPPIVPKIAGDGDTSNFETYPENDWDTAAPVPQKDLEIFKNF

[14] = Cmax in NewZealand white rabbit plasma at 0.1 mg/kg, iv after 30-60 mins by LC-MS/MS analysis; assay type: ADME, organism-based, Oryctolagus cuniculus; set-up: dose 0.1 mg/kg, route intravenous; settings: New Zealand white
[15] = biological target: T2, Rho-associated protein kinase 2; test: Inhibition of human N-terminal GST-tagged ROCK2 expressed in baculovirus-infected insect cells using long S6 kinase peptide as substrate by radiometric assay in presence of [32P]ATP and 200 uM ATP
[16] = Lipophilicity, log D of the compound at pH 7.4; assay type: physicochemical; settings: buffer
[17] = Induction of apoptosis in human HDF-1 cells assessed as increase in caspase3/7 activity at 60 uM after 24 hrs by caspase Glo-3/7 assay; assay type: cell-based; settings: hdf-1, 24 h
Oryctolagus cuniculus [18] = test: Cmax in NewZealand white rabbit plasma assessed as 4-{[(2'-(Aminomethyl)-5'-{[(3-fluoropyridin-4-yl)amino]-carbonyl}biphenyl-3-yl)carbonyl]amino}benzoic Acid at 0.1 mg/kg, iv after 10 mins by LC-MS/MS analysis; assay type: ADME, organism-based; set-up: dose 0.1 mg/kg, route intravenous; settings: in vivo
[19] = Half life in NewZealand white rabbit plasma at 0.1 mg/kg, iv by LC-MS/MS analysis; assay type: ADME, organism-based, Oryctolagus cuniculus; set-up: dose 0.1 mg/kg, route intravenous; settings: New Zealand white
[20] = Cmax in NewZealand white rabbit plasma at 0.1 mg/kg, iv after 1 min by LC-MS/MS analysis; assay type: ADME, organism-based, Oryctolagus cuniculus; set-up: dose 0.1 mg/kg, route intravenous; settings: New Zealand white
[21] = Cmax in NewZealand white rabbit plasma at 0.1 mg/kg, iv after 10 mins by LC-MS/MS analysis; assay type: ADME, organism-based, Oryctolagus cuniculus; set-up: dose 0.1 mg/kg, route intravenous; settings: New Zealand white
[22] = biological target: Serine/threonine-protein kinase N2 (Homo sapiens) (UniProt Q16513); test: Inhibition of human full length N-terminal GST-tagged PRK2 expressed in insect cells using glycogen synthase derived peptide as substrate at 10 nM by radiometric assay in presence of [32P]ATP
Chain of Serine/threonine-protein kinase N2 (Homo sapiens) (Q16513 whole entry, looked up): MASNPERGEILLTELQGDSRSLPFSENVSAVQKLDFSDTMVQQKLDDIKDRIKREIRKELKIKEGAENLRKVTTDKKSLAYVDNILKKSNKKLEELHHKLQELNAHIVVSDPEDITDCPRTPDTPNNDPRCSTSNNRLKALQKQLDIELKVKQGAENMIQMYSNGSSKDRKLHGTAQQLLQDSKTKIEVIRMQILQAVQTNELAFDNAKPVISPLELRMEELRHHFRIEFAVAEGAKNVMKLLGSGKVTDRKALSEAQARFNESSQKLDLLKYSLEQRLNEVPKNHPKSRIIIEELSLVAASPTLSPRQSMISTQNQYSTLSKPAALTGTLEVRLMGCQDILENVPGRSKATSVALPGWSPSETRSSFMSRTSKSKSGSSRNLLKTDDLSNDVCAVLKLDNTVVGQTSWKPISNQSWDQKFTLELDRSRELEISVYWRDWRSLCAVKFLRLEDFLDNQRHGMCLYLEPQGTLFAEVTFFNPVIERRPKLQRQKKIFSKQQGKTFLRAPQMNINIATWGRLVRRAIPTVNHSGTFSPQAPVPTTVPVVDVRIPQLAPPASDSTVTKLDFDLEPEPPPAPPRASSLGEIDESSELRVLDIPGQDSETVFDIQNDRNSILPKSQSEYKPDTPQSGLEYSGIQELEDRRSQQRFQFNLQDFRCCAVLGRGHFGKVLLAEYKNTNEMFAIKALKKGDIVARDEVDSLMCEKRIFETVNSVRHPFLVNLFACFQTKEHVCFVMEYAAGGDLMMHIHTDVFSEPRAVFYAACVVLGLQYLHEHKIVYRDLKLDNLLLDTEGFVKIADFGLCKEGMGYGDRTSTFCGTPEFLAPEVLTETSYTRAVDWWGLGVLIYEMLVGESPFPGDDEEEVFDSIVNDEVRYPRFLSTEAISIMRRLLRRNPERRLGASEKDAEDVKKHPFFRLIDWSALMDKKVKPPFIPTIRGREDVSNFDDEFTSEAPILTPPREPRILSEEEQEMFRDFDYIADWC

[23] = Half life in NewZealand white rabbit plasma by LC-MS/MS analysis; assay type: ADME, cell-free, Oryctolagus cuniculus; settings: New Zealand white
HDF-1 = test: Induction of cell migration in human HDF-1 cells after 8 hrs by wound healing assay; assay type: functional, cell-based
[24] = biological target: Protein kinase C eta type (Homo sapiens) (UniProt P24723); test: Inhibition of human N-terminal GST-tagged PKC eta expressed in baculovirus-infected insect cells using PKCe peptide as substrate at 10 nM by radiometric assay in presence of [32P]ATP and lipid activator
[25] = Inhibition of ROCK-catalysed MLC Thr18/Ser19 phosphorylation in rat A7r5 cells after 90 mins by ELISA; assay type: cell-based; settings: A7R5, 1.5 h
[26] = biological target: Serine/threonine-protein kinase N2 (Homo sapiens) (UniProt Q16513); test: Inhibition of human full length N-terminal GST-tagged PRK2 expressed in insect cells using glycogen synthase derived peptide as substrate at 100 nM by radiometric assay in presence of [32P]ATP
Homo sapiens = organism: Homo sapiens; test: Inhibition of human full length C-terminal His6-tagged PKC theta P300L mutant expressed in baculovirus-infected insect cells using histone H1 as substrate at 100 nM by radiometric assay in presence of [32P]ATP and lipid activator
[27] = Half life in human plasma by LC-MS/MS analysis; assay type: ADME, cell-free
Oryctolagus cuniculus [28] = test: Cmax in NewZealand white rabbit plasma assessed as 4-{[(2'-(Aminomethyl)-5'-{[(3-fluoropyridin-4-yl)amino]-carbonyl}biphenyl-3-yl)carbonyl]amino}benzoic Acid at 0.1 mg/kg, iv after 120 mins by LC-MS/MS analysis; assay type: ADME, organism-based; set-up: dose 0.1 mg/kg, route intravenous; settings: in vivo, 2 h
[29] = biological target: Ribosomal protein S6 kinase alpha-5 (Homo sapiens) (UniProt O75582); test: Inhibition of human full length N-terminal GST-tagged MSK1 expressed in insect cells using crosstide as substrate at 100 nM by radiometric assay in presence of [32P]ATP
Chain of Ribosomal protein S6 kinase alpha-5 (Homo sapiens) (O75582 whole entry, looked up): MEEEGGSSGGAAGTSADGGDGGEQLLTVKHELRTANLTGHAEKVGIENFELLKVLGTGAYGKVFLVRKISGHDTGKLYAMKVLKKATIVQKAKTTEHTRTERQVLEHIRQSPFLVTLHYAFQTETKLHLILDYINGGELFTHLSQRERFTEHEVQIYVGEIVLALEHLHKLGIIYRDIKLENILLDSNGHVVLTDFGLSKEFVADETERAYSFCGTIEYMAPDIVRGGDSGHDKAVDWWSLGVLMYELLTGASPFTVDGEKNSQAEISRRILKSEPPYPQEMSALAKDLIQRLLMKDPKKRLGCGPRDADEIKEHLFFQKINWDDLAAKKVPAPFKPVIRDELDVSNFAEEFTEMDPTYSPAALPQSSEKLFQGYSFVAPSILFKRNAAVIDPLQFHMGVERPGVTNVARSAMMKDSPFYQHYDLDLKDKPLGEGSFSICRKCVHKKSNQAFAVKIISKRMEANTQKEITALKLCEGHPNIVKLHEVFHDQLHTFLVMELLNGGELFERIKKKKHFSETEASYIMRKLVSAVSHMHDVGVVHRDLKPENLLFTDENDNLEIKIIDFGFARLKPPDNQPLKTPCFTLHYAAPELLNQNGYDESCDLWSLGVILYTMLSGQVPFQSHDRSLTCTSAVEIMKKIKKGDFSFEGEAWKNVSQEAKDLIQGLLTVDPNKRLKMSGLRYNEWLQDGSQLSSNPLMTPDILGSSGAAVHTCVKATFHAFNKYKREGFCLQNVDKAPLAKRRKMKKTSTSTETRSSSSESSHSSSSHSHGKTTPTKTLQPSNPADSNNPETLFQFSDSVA

[30] = biological target: Rho-associated protein kinase 1 (Homo sapiens, UniProt Q13464); test: Inhibition of human N-terminal GST-tagged ROCK1 expressed in insect cells using long S6 kinase peptide as substrate by radiometric assay in presence of [32P]ATP

COC(=O)c1ccc(NC(=O)c2cccc(-c3cc(C(=O)Nc4ccncc4F)ccc3CN)c2)cc1
inhibition [1]: Active
CC50 at 2 h [2]: 46 µM
half-life [3]: 12 min
Papp [4]: 0.8 ×10⁻⁶ cm/s
remaining at 2 h [5]: 2.4%
inhibition [6]: Active
inhibition [7]: Active
Cmax [8]: 176 nM
IC50 [9]: < 1 nM
half-life [10]: 12 min
inhibition [11]: Active
remaining at 2 h [12]: 0.4%
inhibition [13]: Active
Cmax [14]: > 8 nM
IC50 [15]: 4.1 nM
logD [16]: 2.74
Activity [17]: Toxic
Cmax (Oryctolagus cuniculus [18]): 255 nM
half-life [19]: 22 min
Cmax [20]: 803 nM
Cmax [21]: 57 nM
inhibition [22]: > 50%
half-life [23]: > 120 min
Activity (HDF-1): Dose-dependent effect
inhibition [24]: > 50%
EC50 [25]: 3 nM
inhibition [26]: Active
inhibition (Homo sapiens): Active
half-life [27]: > 120 min
Cmax (Oryctolagus cuniculus [28]): > 35 nM
inhibition [29]: Active
IC50 [30]: < 1 nM
